Read-outs that look alike come from different tables or passages of the source. Each block holds one compound with its values, some of them ahead of it.
Tests used:
[1] = target: T1, Aβ42 aggregate (Homo sapiens, UniProt P05067); experiment: Evaluation experiment of binding to amyloid β (filter radioactivity); conditions: Aβ42 aggregate 30 nmol/L, incubation 3 hours
T1 construct: Aβ (1-42) peptide; purchased Peptide Institute, Inc
Description: 0.5 mg of Aβ (1-42) peptide (purchased from Peptide Institute, Inc.) was dissolved in 2 mL of a PBS buffer containing 1 mmol/L of EDTA and incubated at 37° C. for 42 hours, thus preparing an Aβ42 aggregate. A glass tube was charged with a 10 vol % ethanol aqueous solution (900 μL), Aβ42 aggregate (50 μL, final concentration 30 nmol/L), and radioactive iodine-labeled compound 1, radioactive iodine-labeled compound 2, or radioactive iodine-labeled compound 3 (each 50 μL, 0.018-0.097 μCi), and incubation was carried out for 3 hours. B/F separation was carried out using a cell harvester (Brandel, M-24), and the radioactivity on the filter was measured in a γ counter. The proportion (%) of the radioactivity count on the filter relative to the radioactivity count of each sample used was determined, and binding of each compound to the Aβ42 aggregate was evaluated.
As a control, 4-dimethylamino-4′-iodochalcone (hereinafter, called a chalcone derivative) was prepared in accordance with a method described in the literature (Ono et al., Bioorg Med Chem, 15, 6802-6809, 2007), and the same experiment was carried out (radioactivity count in sample: […]-0.37 kBq (0.023-0.01 μCi)).

[2] = mice
Description: Mice were decapitated after 2, 10, 30, and 60 minutes, and then each organ was then removed after blood collection, and radiation counts were measured in a γ counter.

[3] = target: tau protein aggregate (Homo sapiens, UniProt P10636); conditions: tau 0.37 μmol/L, incubated 1 to 1.5 hours, PD-10 column
tau protein aggregate, sequence (P10636 1-441 isoform P10636-8): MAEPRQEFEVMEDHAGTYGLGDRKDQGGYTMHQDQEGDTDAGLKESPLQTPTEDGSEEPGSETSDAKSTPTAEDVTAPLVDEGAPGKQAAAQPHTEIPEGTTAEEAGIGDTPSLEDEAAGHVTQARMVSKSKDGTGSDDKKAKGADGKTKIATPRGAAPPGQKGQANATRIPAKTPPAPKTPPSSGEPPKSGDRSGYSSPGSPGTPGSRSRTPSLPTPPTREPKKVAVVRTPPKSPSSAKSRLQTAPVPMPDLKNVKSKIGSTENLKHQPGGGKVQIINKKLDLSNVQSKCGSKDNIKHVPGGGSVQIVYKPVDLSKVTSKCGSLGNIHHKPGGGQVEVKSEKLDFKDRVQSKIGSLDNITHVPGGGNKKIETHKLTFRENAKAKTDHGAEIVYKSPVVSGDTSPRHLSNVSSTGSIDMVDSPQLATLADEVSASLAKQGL
Description: Mixed solutions of a tau protein aggregate (final concentration 0.37 μmol/L, prepared in Example 9) or an non-aggregated tau protein (final concentration 0.37 μmol/L) and radioactive iodine-labeled compound 1 (2.0 kBq (0.055 μCi)), radioactive iodine-labeled compound 2 (20 kBq (0.55 μCi)) or radioactive iodine-labeled form 3 (2.0 kBq (0.055 μCi)) were incubated for 1 hour to 1.5 hours, and then subjected to size exclusion chromatography (PD-10 column (GE Healthcare Japan), eluent: phosphate buffered-saline (PBS)). Subsequently, the radioactivity of an eluted fraction of the tau protein aggregate or the non-aggregated tau protein was measured in a γ counter.

[4] = 2 minutes after tail vein administration
[5] = 10 minutes after tail vein administration
[6] = 30 minutes after tail vein administration
[7] = 60 minutes after tail vein administration

T1 sequence (P05067 672-713 limits assumed): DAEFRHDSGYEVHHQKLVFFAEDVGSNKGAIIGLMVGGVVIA

Compound: CCOC(=O)CN1C(=O)/C(=C/c2ccc(-c3cccc([125I])c3)o2)NC1=S [Radioactive iodine-labeled compound 2, (Z)-Ethyl-2-(4-((5-(3-(^125I)iodophenyl)furan-2-yl)methylene)-5-oxo-2-thioxoimidazolidin-l-yl) acetate]
Binding to the Aβ42 aggregate (proportion of radioactivity count on the filter) [1]: significantly lower
Amount of radioactivity in organ: Blood [2, 4]: 9.49 ± 0.82 % ID/g
Amount of radioactivity in organ: Blood [2, 5]: 2.38 ± 0.88 % ID/g
Amount of radioactivity in organ: Blood [2, 6]: 1.79 ± 0.11 % ID/g
Amount of radioactivity in organ: Blood [2, 7]: 1.50 ± 0.10 % ID/g
Amount of radioactivity in organ: Brain [2, 4]: 0.57 ± 0.07 % ID/g
Amount of radioactivity in organ: Brain [2, 5]: 0.32 ± 0.02 % ID/g
Amount of radioactivity in organ: Brain [2, 6]: 0.18 ± 0.02 % ID/g
Amount of radioactivity in organ: Brain [2, 7]: 0.10 ± 0.03 % ID/g
Amount of radioactivity in organ: Heart [2, 4]: 7.02 ± 1.23 % ID/g
Amount of radioactivity in organ: Heart [2, 5]: 2.05 ± 0.29 % ID/g
Amount of radioactivity in organ: Heart [2, 6]: 1.19 ± 0.39 % ID/g
Amount of radioactivity in organ: Heart [2, 7]: 1.44 ± 0.39 % ID/g
Amount of radioactivity in organ: Intestine [2, 4]: 1.85 ± 0.26 % ID/g
Amount of radioactivity in organ: Intestine [2, 5]: 7.88 ± 1.46 % ID/g
Amount of radioactivity in organ: Intestine [2, 6]: 17.7 ± 2.22 % ID/g
Amount of radioactivity in organ: Intestine [2, 7]: 23.4 ± 5.37 % ID/g
Amount of radioactivity in organ: Kidney [2, 4]: 9.21 ± 0.68 % ID/g
Amount of radioactivity in organ: Kidney [2, 5]: 9.11 ± 1.15 % ID/g
Amount of radioactivity in organ: Kidney [2, 6]: 3.86 ± 0.85 % ID/g
Amount of radioactivity in organ: Kidney [2, 7]: 2.68 ± 0.75 % ID/g
Amount of radioactivity in organ: Liver [2, 4]: 32.2 ± 1.67 % ID/g
Amount of radioactivity in organ: Liver [2, 5]: 32.1 ± 2.09 % ID/g
Amount of radioactivity in organ: Liver [2, 6]: 22.6 ± 3.42 % ID/g
Amount of radioactivity in organ: Liver [2, 7]: 20.2 ± 1.93 % ID/g
Amount of radioactivity in organ: Lung [2, 4]: 10.8 ± 1.28 % ID/g
Amount of radioactivity in organ: Lung [2, 5]: 3.89 ± 0.32 % ID/g
Amount of radioactivity in organ: Lung [2, 6]: 2.09 ± 0.43 % ID/g
Amount of radioactivity in organ: Lung [2, 7]: 1.70 ± 0.45 % ID/g
Amount of radioactivity in organ: Pancreas [2, 4]: 1.79 ± 0.27 % ID/g
Amount of radioactivity in organ: Pancreas [2, 5]: 0.98 ± 0.08 % ID/g
Amount of radioactivity in organ: Pancreas [2, 6]: 0.56 ± 0.10 % ID/g
Amount of radioactivity in organ: Pancreas [2, 7]: 0.45 ± 0.08 % ID/g
Amount of radioactivity in organ: Spleen [2, 4]: 9.16 ± 2.04 % ID/g
Amount of radioactivity in organ: Spleen [2, 5]: 12.2 ± 2.28 % ID/g
Amount of radioactivity in organ: Spleen [2, 6]: 13.6 ± 4.29 % ID/g
Amount of radioactivity in organ: Spleen [2, 7]: 10.0 ± 2.49 % ID/g
Amount of radioactivity in organ: Stomach [2, 4]: 0.93 ± 0.36 % ID/g
Amount of radioactivity in organ: Stomach [2, 5]: 3.39 ± 3.03 % ID/g
Amount of radioactivity in organ: Stomach [2, 6]: 3.39 ± 2.98 % ID/g
Amount of radioactivity in organ: Stomach [2, 7]: 5.32 ± 2.68 % ID/g
Radioactivity of eluted fraction: aggregated tau vs non aggregated tau vs buffer [3]: specifically binding to a tau protein aggregate

Binding to the Aβ42 aggregate (proportion of radioactivity count on the filter) [1]: exhibited binding to the Aβ42 aggregate
Compound: CN(C)c1ccc(/C=C/C(=O)c2ccc(I)cc2)cc1 [chalcone derivative, 4-dimethylamino-4′-iodochalcone, reference compound]

Compound: CCOC(=O)CN1C(=O)/C(=C/c2ccc(-c3cccc([125I])c3)o2)SC1=S [Radioactive iodine-labeled compound 1, (Z)-Ethyl-2-(5-((5-(3-(^125I)iodophenyl)furan-2-yl)methylene)-4-oxo-2-thioxothiazolidin-3-yl) acetate]
Binding to the Aβ42 aggregate (proportion of radioactivity count on the filter) [1]: significantly lower
Amount of radioactivity in organ: Blood [2, 4]: 6.70 ± 0.53 % ID/g
Amount of radioactivity in organ: Blood [2, 5]: 3.58 ± 0.37 % ID/g
Amount of radioactivity in organ: Blood [2, 6]: 2.27 ± 0.44 % ID/g
Amount of radioactivity in organ: Blood [2, 7]: 1.59 ± 0.14 % ID/g
Amount of radioactivity in organ: Brain [2, 4]: 0.23 ± 0.02 % ID/g
Amount of radioactivity in organ: Brain [2, 5]: 0.16 ± 0.01 % ID/g
Amount of radioactivity in organ: Brain [2, 6]: 0.15 ± 0.03 % ID/g
Amount of radioactivity in organ: Brain [2, 7]: 0.11 ± 0.02 % ID/g
Amount of radioactivity in organ: Heart [2, 4]: 9.41 ± 0.49 % ID/g
Amount of radioactivity in organ: Heart [2, 5]: 5.05 ± 0.39 % ID/g
Amount of radioactivity in organ: Heart [2, 6]: 2.38 ± 0.38 % ID/g
Amount of radioactivity in organ: Heart [2, 7]: 1.39 ± 0.19 % ID/g
Amount of radioactivity in organ: Intestine [2, 4]: 1.77 ± 0.33 % ID/g
Amount of radioactivity in organ: Intestine [2, 5]: 7.97 ± 1.24 % ID/g
Amount of radioactivity in organ: Intestine [2, 6]: 15.1 ± 1.82 % ID/g
Amount of radioactivity in organ: Intestine [2, 7]: 21.0 ± 2.73 % ID/g
Amount of radioactivity in organ: Kidney [2, 4]: 8.50 ± 0.83 % ID/g
Amount of radioactivity in organ: Kidney [2, 5]: 7.64 ± 0.69 % ID/g
Amount of radioactivity in organ: Kidney [2, 6]: 6.42 ± 1.17 % ID/g
Amount of radioactivity in organ: Kidney [2, 7]: 3.91 ± 0.18 % ID/g
Amount of radioactivity in organ: Liver [2, 4]: 43.1 ± 2.07 % ID/g
Amount of radioactivity in organ: Liver [2, 5]: 29.5 ± 2.17 % ID/g
Amount of radioactivity in organ: Liver [2, 6]: 14.7 ± 2.27 % ID/g
Amount of radioactivity in organ: Liver [2, 7]: 11.3 ± 0.87 % ID/g
Amount of radioactivity in organ: Lung [2, 4]: 13.6 ± 1.00 % ID/g
Amount of radioactivity in organ: Lung [2, 5]: 4.44 ± 0.52 % ID/g
Amount of radioactivity in organ: Lung [2, 6]: 2.31 ± 0.46 % ID/g
Amount of radioactivity in organ: Lung [2, 7]: 1.56 ± 0.22 % ID/g
Amount of radioactivity in organ: Pancreas [2, 4]: 1.74 ± 0.19 % ID/g
Amount of radioactivity in organ: Pancreas [2, 5]: 1.75 ± 0.18 % ID/g
Amount of radioactivity in organ: Pancreas [2, 6]: 1.16 ± 0.17 % ID/g
Amount of radioactivity in organ: Pancreas [2, 7]: 0.73 ± 0.08 % ID/g
Amount of radioactivity in organ: Spleen [2, 4]: 6.70 ± 0.54 % ID/g
Amount of radioactivity in organ: Spleen [2, 5]: 4.11 ± 0.80 % ID/g
Amount of radioactivity in organ: Spleen [2, 6]: 2.66 ± 0.84 % ID/g
Amount of radioactivity in organ: Spleen [2, 7]: 1.94 ± 0.40 % ID/g
Amount of radioactivity in organ: Stomach [2, 4]: 0.75 ± 0.17 % ID/g
Amount of radioactivity in organ: Stomach [2, 5]: 1.53 ± 0.44 % ID/g
Amount of radioactivity in organ: Stomach [2, 6]: 3.65 ± 0.78 % ID/g
Amount of radioactivity in organ: Stomach [2, 7]: 4.51 ± 0.38 % ID/g
Radioactivity of eluted fraction: aggregated tau vs non aggregated tau vs buffer [3]: specifically binding to a tau protein aggregate
